In patent US20220142957A1, “TERPENE BASED THERAPEUTIC DEEP EUTECTIC SYSTEM, METHOD OF OBTAINING AND USES THEREOF” (priority 2019, published 2022):

Assays:
HT29 cells [1] = assay: Antiproliferative assay in HT29 cells (MTS); assay type: cell-based, human; conditions: 24 hours, mean ± SD
Experimental: In one embodiment, human Caco-2 and HT29 cell lines were obtained from Deutsche Sammlung von Mikroorganismen and Zellkulturen (DSMZ, Germany) and American Type Culture Collection (ATCC, USA), respectively. These cell lines were cultured in RPMI 1640 medium supplemented with 10% of heat-inactivated Fetal Bovine Serum (FBS). […] Cells were maintained at 37° C. with 5% CO2 in a humidified incubator and routinely grown as a monolayer in 75 cm^2 culture flasks. The cell culture medium and supplements were purchased from Invitrogen (Gibco, Invitrogen Corporation, UK). In one embodiment, the antiproliferative effect of […] and standard compounds was evaluated in HT29 cells. Briefly, cells were seeded at a density of 1×10^4 cells/well in 96-well culture plates. […] Cells incubated only with culture medium were considered as control. Cell proliferation was measured after 24 hours using MTS reagent, as mentioned above. Results were expressed in terms of percentage of living cells relative to the control. At least three independent experiments were performed in triplicate. In one embodiment, all data were expressed as mean±Standard Deviation (SD).

[2] = Cytotoxicity assay in confluent, non-differentiated Caco-2 cells (MTS); assay type: cell-based, human; conditions: human, confluent, non-differentiated Caco-2 cells, isolated compounds, mean ± SD
Experimental: (§1) The cell culture medium and supplements were purchased from Invitrogen (Gibco, Invitrogen Corporation, UK).
(§2) Cells incubated only with culture medium were considered as control. […] At least three independent experiments were performed in triplicate.
(§3) A p-value<0.05 was considered statistically significant.

HT29 cells [3] = assay: Cell cycle assessment by flow cytometry (propidium iodide); conditions: 24 hours, non-cytotoxic concentrations (FIG. 5A)
HT29 cells [4] = assay: Apoptosis by caspase-3 activity (NucView488/MitoView633); assay type: cell-based, human; conditions: 2 mM, 24 hours (FIG. 5B)
Experimental: In one embodiment, apoptosis was evaluated by caspase-3 activity using NucView488™ and MitoView633™ Apoptosis Assay Kit (Biotium, USA) that allows staining of living cells by a far-red fluorescent dye MitoView633™ and the intracellular caspase-3/7 activity and cells nuclei morphological changes by bright green fluorescent dye NucView488™. […] Staining was performed with 200 μL/well of culture medium containing 1 μL of NucView488™ and 1 μL of MitoView633™ for 2 hours. Cells were observed under fluorescence microscope (Leica DM6000, Germany) and image analysis performed using ImageJ software.

Caco-2 cells = assay: Cytotoxicity assay in confluent, non-differentiated Caco-2 cells (MTS); assay type: cell-based, human; conditions: isolated compounds, 24 hours, mean ± SD
Experimental: as §1, §2, §3

Compound	EC50 (HT29 cells [1]; Homo sapiens, HT-29, isolated compounds)	EC50 at 24 h [2]	effect on cell cycle (HT29 cells [3])	EC50 (HT29 cells [1]; isolated compounds)	induction of apoptosis via caspase-3 activity (HT29 cells [4])	EC50 (Caco-2 cells)
CCCCCCCCCC(=O)O [CA, Capric acid]	341 ± 81 µM	1330 ± 223 µM				
CC(C)Cc1ccc(C(C)C(=O)O)cc1 (stereo not shown) [IBU, Ibuprofen]			promoted cell cycle arrest in G1-phase			
S-Limonene			promoted cell cycle arrest in G1-phase	661 ± 25 µM	capable of inducing apoptosis via caspase-3 activity	2640 ± 108 µM
